The results in this text go back to patent US7115665B1, “Inhibitors of endo-exonuclease activity for treating cancer” (Onocozyme Pharma, Inc., priority 2000, dated 2006).

Like-named read-outs stand apart in the source and are kept apart here.

Series [1] has as its system MCF-7 breast cancer cells. The conditions noted are these: read-out: LC50; MCF-7, 2 day exposure.
For series [2], the system named is H460 NSCLC cells. The series can be described thus: cells. The conditions noted are these: read-out: LC50.
For series [3], the system named is H520 NSCLC cells. The series is described as follows: cells. As to conditions: read-out: LC50.
The subject of series [4] is H661 NSCLC cells. The series can be described thus: cells. The conditions noted are these: read-out: LC50.
Series [5] concerns HT29 colon cancer cells. As to conditions: read-out: LC50; HT29, 2 day exposure.
Series [6] deals with human endo-exonuclease. The series can be described thus: Endo-exonuclease nuclease activity inhibition assay. It counts as biochemical. As for the experimental part: The cultured cells were detached with trypsin-EDTA and the cell suspensions were centrifuged at 4° C. with a force of 700 g for 10 minutes. The cell pellets were washed twice with cold phosphate buffered saline (PBS). The cells were then resuspended and sonicated in 20 mM Tris-HCl, pH 7.5, containing 5 mM EDTA and 1 mM PMSF (buffer A). The resulting cell lysis suspensions were centrifuged at 4° C. at 10,000 g for 15 min. […] After washing extensively with buffer A, (i.e. until the A280 of the eluates were zero), the column was then eluted with buffer A containing 3.5 M MgCl2 to elute the endo-exonuclease. The eluted endo-exonuclease was dialyzed extensively against buffer A with at least two changes of buffer and one change of distilled water. The endo-exonuclease was then concentrated by lyophilization.
One unit of activity was defined as the amount of deoxyribonuclease that renders 1 μg of DNA acid-soluble in 30 min at 37° C. For the inhibition assay with the drugs, the drugs were added to the endo-exonuclease prior to the start of the nuclease reaction.

The subject of series [7] is HT29 colon cancer cells. The series is described as follows: cells. As to conditions: Homo sapiens, read-out: LC50.
The test system of series [8] is MCF-7 breast cancer cells. The series is described as follows: cells. As to conditions: Homo sapiens, read-out: LC50.
In series [9] the test system is Lewis lung carcinoma (M47) primary tumour. The protocol: Lewis Lung Carcinoma Cell Line and Cell Culture: The Lewis lung carcinoma clone, M47, is a metastatic model. […] For tumour induction, cells were washed three times with phosphate buffer solution. They were then re-suspended at a dilution of 1×10^6 cells/0.1 ml. Only cells where viability was >95% were used for in vivo studies.
The mouse strain used in this study was C57BL/10. After one-week of acclimatization, cells were transplanted into the mice subcutaneously, as a suspension of tumour cells. All animals were inoculated at the same site.
To measure the effect of drugs on the primary tumour, drug solutions were administered by intraperitoneal (ip) injection every two days. Animals were subjected, on a daily basis, to general examination. Tumour growth was monitored over time. To determine the effect of drugs on tumour metastasis, the tumours were allowed to reach a size of 0.5–1.0 cm^3. Mice were randomized into various groups and the drugs were then given by ip. At the end of each experiment, animals were sacrificed and autopsied. Tumours, organs or both were removed under sterile conditions. Tumours were weighed. Organs were examined for gross pathological changes and then fixed in formalin. Lungs were fixed in Bouin's fixative and lung surface metastases were counted using a stereomicroscope.
The Lewis lung carcinoma clone, M47, with a high metastatic potential to the lung was used. […] The cell used was confirmed to be free of mycoplasma. Cells were maintained in RPMI-1640 medium supplemented with 10% fetal bovine serum and 1% penicillin-streptomycin, under 5% CO2. Cells were then propagated and stocks of the same passages were established and stored in liquid nitrogen. Oncozyme studies were done with the same stock of cells and same passage number.
For tumour induction, cells were grown to 70% confluence in complete medium and then collected using trypsin-EDTA solution [0.05% trypsin 0.53 mM EDTA-4Na in HBSS without Ca++. Mg++, and NaHCO3; Celigro No. 25–052-Li]. Cells were then centrifuged and washed three times with phosphate buffer solution [D-PBS, Ca++ and Mg++free; Cellgro No. 21–031-LV], and resuspended at a dilution of 0.1 to 1×10^6 cells/0.1 ml. Viability was examined by trypan blue staining and only cells in which the viability was >95% were used for in vivo studies.
The mouse strain used in this study is C57BL/10 from Charles River Inc. Animals were housed 5 per cage and were fed a diet of animal chow and water ad libitum. After one week acclimatization, LLC cells were transplanted subcutaneously, as a suspension of tumour cells [2−5×10^5 viable cells per 0.1 ml], in the axillary region of the right flank. All animals were inoculated at the same site. Animals were subjected, on a daily basis, to general examination. Tumour growth was monitored every second or third day using calipers. Parameters measured were: tumour measured along the longest axis (length) and the perpendicular shortest axis (width) and the relative tumour volume (in cm^3) was calculated by the formula: [length (cm)×(width cm)^2] (approximately 10–15 days), mice were randomized into one of the following groups:
The conditions for this group were identical to the group used for the experiments on metastases with the exception that the primary tumour was not removed, and the animals were maintained until the tumours reached a large size that justified animal sacrifice, or the animals manifested a discomfort that justified their sacrifice (reduced mobility, severe respiratory symptoms, etc.).
Control animals were given the same volume of saline solution [0.9% sodium chloride]. The dose of each drug was normalized to body weight per animal.
The pentamidine and cisplatinum were injected by intraperitoneal injections. Adriamycin was injected intravenously.

Take `CC(=O)NCC(=O)O.CC(=O)NCC(=O)O.N=C(N)c1ccc(N=NNc2ccc(C(=N)N)cc2)cc1` [Berenil, berenil]: the CC50 was 3000 µM in [1]; more than 4000 µM in series [2] (H460, 2 day exposure); more than 4000 µM in [3] (H520, 2 day exposure); more than 4000 µM in series [4] (H661, 2 day exposure); more than 4000 µM in [5]. In series [6] (2 mM), the “Percent of Inhibition of endo-exonuclease activity” value came out at 17%.
Consider `Cn1cc(NC(=O)c2cc(NC(=O)c3cc(NC=O)cn3C)cn2C)cc1C(=O)NCCC(=N)N` [Distamycin A, distamycin A], for which the CC50 in [1] was 1520 µM; in [2] (H460, 2 day exposure), more than 2000 µM; in [3] (H520, 2 day exposure), more than 2000 µM; in series [4] (H661, 2 day exposure), more than 2000 µM; in [5], more than 2000 µM. In addition, in series [6] (38 μM), the “Percent of Inhibition of endo-exonuclease activity” value came out at 30%.
As for `COc1cc([C@@H]2c3cc4c(cc3[C@@H](O[C@@H]3O[C@@H]5CO[C@@H](C)O[C@H]5[C@H](O)[C@H]3O)[C@H]3COC(=O)[C@H]23)OCO4)cc(OC)c1O` [Etoposide, etoposide], the CC50 in series [2] (Homo sapiens, NCI-H460, 48 h) was more than 34000 µM; in series [2] (Homo sapiens, NCI-H460, 96 h), more than 34000 µM; in series [7] (HT-29, 48 h), 700 µM; in [7] (HT-29, 96 h), 400 µM; in series [3] (Homo sapiens, NCI-H520, 48 h), more than 34000 µM; in [3] (Homo sapiens, NCI-H520, 96 h), more than 34000 µM. Further, the CC50 was found to be 28000 µM in series [4] (Homo sapiens, NCI-H661, 48 h); 15600 µM in series [4] (Homo sapiens, NCI-H661, 96 h); 1000 µM in series [8] (MCF7, 48 h); 1100 µM in [8] (MCF7, 96 h). For the same compound, in series [6] (50 μM), the “Percent of Inhibition of endo-exonuclease activity” value came to 0%.
Take `CO[C@@]12[C@H](COC(N)=O)C3=C(C(=O)C(C)=C(N)C3=O)N1C[C@@H]1N[C@@H]12` [Mitomycin C, mitomycin C]: the “Percent of Inhibition of endo-exonuclease activity” value in series [6] (50 μM) turned out to be 0%.
In [9] (7.5 mg/Kg/iv, highest dose tested, FIG. 19), `COc1cccc2c1C(=O)c1c(O)c3c(c(O)c1C2=O)C[C@@](O)(C(=O)CO)C[C@@H]3O[C@H]1C[C@H](N)[C@H](O)[C@H](C)O1` [adriamycin] returned a Mortality of 100%. The “Antitumour effect on primary tumour” value in [9] (minimal dose of 5 mg/Kg iv) is recorded as “potent antitumour effect”.
